In assay [1] the test system is M-07e cells. Put plainly: M-07e cellular assay (SCF-mediated cell proliferation). The class given is cell-based. As to conditions: Homo sapiens, 72 hours, CellTiter Glo. In outline:
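EC50 values reflect inhibition of SCF-driven proliferation, with SCF at EC90 and a 72 h compound exposure, measured as CellTiter Glo luminescence. Growth is scaled between no-SCF (0%) and untreated (100%) wells.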
(Cellular ATP, detected with luciferase, serves as a proxy for viable cell number.)

Assay [2] has as its target Recombinant human c-KIT kinase (Homo sapiens (Human), UniProt P10721). Put plainly: c-KIT kinase chemiluminescence assay (ADP-Glo). The class given is biochemical. As to conditions: ATP 50 μM. In outline: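 ADP formed by c-KIT on polyEY over 2 h at RT (after 30 min enzyme preincubation; Tris pH 7.5, MgCl2, BSA, DTT buffer) was detected by ADP-Glo luminescence. IC50 and Hill slope were fitted to control-normalized activity across compound concentrations.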
In general terms: ADP-Glo first removes unused ATP, then detects ADP through luciferase.

As usually defined, the EC50 is the concentration that produces a half-maximal response. Read a high EC50 as lower potency in that assay. What is called IC50 is the point on the concentration scale where inhibition reaches its midpoint.

Structures are written as SMILES.

Sequence of Recombinant human c-KIT kinase (P10721 26-976): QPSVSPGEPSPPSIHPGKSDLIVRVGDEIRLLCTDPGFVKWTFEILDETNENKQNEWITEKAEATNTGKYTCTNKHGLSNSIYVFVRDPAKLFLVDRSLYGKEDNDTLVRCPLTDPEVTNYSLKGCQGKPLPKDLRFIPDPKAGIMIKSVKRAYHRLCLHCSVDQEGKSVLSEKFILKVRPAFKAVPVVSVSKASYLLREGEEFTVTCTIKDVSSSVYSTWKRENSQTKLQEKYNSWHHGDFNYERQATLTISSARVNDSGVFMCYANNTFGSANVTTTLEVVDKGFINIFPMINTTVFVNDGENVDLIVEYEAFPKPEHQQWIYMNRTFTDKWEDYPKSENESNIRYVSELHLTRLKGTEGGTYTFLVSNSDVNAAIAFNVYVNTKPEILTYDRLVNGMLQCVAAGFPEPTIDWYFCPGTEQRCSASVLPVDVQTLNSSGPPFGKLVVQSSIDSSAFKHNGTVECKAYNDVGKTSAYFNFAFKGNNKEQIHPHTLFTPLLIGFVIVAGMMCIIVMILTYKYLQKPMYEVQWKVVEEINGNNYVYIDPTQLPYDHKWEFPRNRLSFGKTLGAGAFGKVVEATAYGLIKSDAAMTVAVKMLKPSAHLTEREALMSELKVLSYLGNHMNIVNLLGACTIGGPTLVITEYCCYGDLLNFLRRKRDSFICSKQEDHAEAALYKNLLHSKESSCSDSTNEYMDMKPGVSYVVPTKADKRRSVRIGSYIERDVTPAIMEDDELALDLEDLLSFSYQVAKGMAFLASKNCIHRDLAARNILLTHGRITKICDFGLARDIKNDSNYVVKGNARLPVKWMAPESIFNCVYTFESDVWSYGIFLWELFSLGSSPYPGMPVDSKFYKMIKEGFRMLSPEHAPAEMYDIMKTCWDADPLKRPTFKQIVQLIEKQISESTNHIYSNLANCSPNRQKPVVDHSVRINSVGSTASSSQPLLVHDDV

The molecule `Cc1ccc(-c2noc([C@H]3C[C@@H]3F)n2)cc1NC(=O)c1cnn2ccc(N3CCO[C@@H](C)C3)cc12` [Example 215] gave an EC50 in assay [1] of under 100 nM. In addition, the 50% inhibitory concentration (IC50) in assay [2] is under 100 nM.

Regarding `Cc1ccc(-c2noc([C@H]3C[C@@H]3F)n2)cc1NC(=O)c1cnn2ccc(N3CCC4(C3)CC4(F)F)cc12` (stereo partly shown) [Example 216], the EC50 in assay [1] was under 100 nM. Also, the IC50 in assay [2] was under 100 nM.

For the molecule `Cc1ccc(-c2noc([C@H]3C[C@@H]3F)n2)cc1NC(=O)c1cnn2ccc(N3CC4(C3)CC4(F)F)cc12` [Example 217], the EC50 in assay [1] was under 100 nM. The IC50 in assay [2] is under 100 nM.

For the molecule `CC(=O)N1CC(Oc2ccn3ncc(C(=O)Nc4cc(-c5noc([C@H]6C[C@@H]6F)n5)ccc4C)c3c2)C1` [Example 218], in assay [1], the 50% effective concentration (EC50) is 100 to 1000 nM. Moreover, in assay [2], the IC50 was 100 to 1000 nM.

With `Cc1ccc(-c2noc([C@H]3C[C@@H]3F)n2)cc1NC(=O)c1cnn2ccc(OC3COC3)cc12` [Example 219], the concentration giving a half-maximal response (EC50) in assay [1] was under 100 nM. The concentration for half-maximal inhibition (IC50) in assay [2] was under 100 nM.

Turning to `Cc1ccc(-c2noc([C@H]3C[C@@H]3F)n2)cc1NC(=O)c1cnn2ccc(O[C@@H]3CCOC3)cc12` [Example 220], in assay [1], the concentration for a half-maximal effect (EC50) is 100 to 1000 nM. For the same molecule, the concentration for half-maximal inhibition (IC50) in assay [2] is under 100 nM.

Take `Cc1ccc(-c2noc([C@H]3C[C@@H]3F)n2)cc1NC(=O)c1cnn2ccc(O[C@H]3CCOC3)cc12` [Example 221]: in assay [1], the concentration for a half-maximal effect (EC50) was in the range of 100 to 1000 nM. Besides, in assay [2], the IC50 was under 100 nM.

In assay [1], `Cc1ccc(-c2noc([C@H]3C[C@@H]3F)n2)cc1NC(=O)c1cnn2ccc(N3CC(F)(F)C3)cc12` [Example 222] displayed an EC50 of 100 to 1000 nM. Moreover, in assay [2], the IC50 was under 100 nM.

Regarding `Cc1ccc(-c2noc([C@H]3C[C@@H]3F)n2)cc1NC(=O)c1cnn2ccc(N3CC(F)(C(F)(F)F)C3)cc12` [Example 223], the 50% effective concentration (EC50) in assay [1] lay in the range of 100 to 1000 nM. Further, the 50% inhibitory concentration (IC50) in assay [2] was 100 to 1000 nM.

On to `Cc1ccc(-c2noc([C@H]3C[C@@H]3F)n2)cc1NC(=O)c1cnn2ccc(N3C[C@@H](F)[C@@H]3C)cc12` [Example 224], for which the EC50 in assay [1] was under 100 nM. Besides, the IC50 in assay [2] is under 100 nM.

In the case of `Cc1ccc(-c2noc([C@H]3C[C@@H]3F)n2)cc1NC(=O)c1cnn2ccc(N3CC(C(F)(F)F)C3)cc12` [Example 225], in assay [1], the half-maximal effective concentration (EC50) was 100 to 1000 nM. In addition, the IC50 in assay [2] is under 100 nM.

Consider `COC1(OC)CC2(CN(c3ccn4ncc(C(=O)Nc5cc(-c6noc([C@H]7C[C@@H]7F)n6)ccc5C)c4c3)C2)C1` [Example 226], for which, in assay [1], the concentration giving a half-maximal response (EC50) is under 100 nM. Besides, in assay [2], the IC50 was under 100 nM.

In assay [1], `Cc1ccc(-c2noc([C@H]3C[C@@H]3F)n2)cc1NC(=O)c1cnn2ccc(N3CC4(CCC4)C3)cc12` [Example 227] had an EC50 of 100 to 1000 nM. Also, the half-maximal inhibitory concentration (IC50) in assay [2] is under 100 nM.

Molecule `Cc1ccc(-c2noc([C@H]3C[C@@H]3F)n2)cc1NC(=O)c1cnn2ccc(N3CC4CC3C4(C)C)cc12` (stereo partly shown) [Example 228] had an EC50 in assay [1] of 100 to 1000 nM. Further, the 50% inhibitory concentration (IC50) in assay [2] was under 100 nM.

`Cc1ccc(-c2noc([C@H]3C[C@@H]3F)n2)cc1NC(=O)c1cnn2ccc(N3CCN(CC(F)(F)F)[C@H](C)C3)cc12` [Example 230] registered an EC50 in assay [1] of under 100 nM. Moreover, the IC50 in assay [2] was under 100 nM.

In assay [1], `Cc1ccc(-c2noc([C@H]3C[C@@H]3F)n2)cc1NC(=O)c1cnn2ccc(N3CC4(CC(=O)C4)C3)cc12` [Example 231] came in with a half-maximal effective concentration (EC50) of under 100 nM. Further, the IC50 in assay [2] was under 100 nM.

In turn, `Cc1ccc(-c2noc([C@H]3C[C@@H]3F)n2)cc1NC(=O)c1cnn2ccc(N3CC4(C3)CC(O)(C(F)F)C4)cc12` [Example 232] displayed an EC50 in assay [1] of under 100 nM. In assay [2], the half-inhibitory concentration (IC50) is under 100 nM.

In turn, `Cc1ccc(-c2noc([C@H]3C[C@@H]3F)n2)cc1NC(=O)c1cnn2ccc(N3CC4(C3)CC(O)(C(F)(F)F)C4)cc12` [Example 233] showed an EC50 in assay [1] of under 100 nM. Moreover, in assay [2], the IC50 is under 100 nM.

For `CC(=O)N1CCN(c2ccn3ncc(C(=O)Nc4cc(-c5noc([C@H]6C[C@@H]6F)n5)ccc4C)c3c2)C[C@H]1C` [Example 234], the EC50 in assay [1] was under 100 nM. Besides, in assay [2], the concentration for half-maximal inhibition (IC50) was under 100 nM.

Regarding `Cc1ccc(-c2noc([C@H]3C[C@@H]3F)n2)cc1NC(=O)c1cnn2ccc(N3CC4(CCN4C(=O)OC(C)(C)C)C3)cc12` [Example 235], in assay [1], the EC50 was over 1000 nM. Moreover, the half-inhibitory concentration (IC50) in assay [2] is over 1000 nM.

Take `Cc1ccc(-c2noc([C@H]3C[C@@H]3F)n2)cc1NC(=O)c1cnn2ccc(-n3cc(NC(=O)OC(C)(C)C)cn3)cc12` [Example 236]: the 50% effective concentration (EC50) in assay [1] lay within 100 to 1000 nM. Further, the half-inhibitory concentration (IC50) in assay [2] was in the range of 100 to 1000 nM.

For `Cc1ccc(-c2noc([C@H]3C[C@@H]3F)n2)cc1NC(=O)c1cnn2ccc(-n3cc(N)cn3)cc12` [Example 237], in assay [1], the EC50 was 100 to 1000 nM. In addition, the 50% inhibitory concentration (IC50) in assay [2] is under 100 nM.

The molecule `Cc1ccc(-c2noc([C@H]3C[C@@H]3F)n2)cc1NC(=O)c1cnn2ccc(Nc3cn[nH]c3)cc12` [Example 238] gave an EC50 in assay [1] of under 100 nM. Moreover, in assay [2], the half-maximal inhibitory concentration (IC50) was under 100 nM.

As to `Cc1ccc(-c2noc([C@H]3C[C@@H]3F)n2)cc1NC(=O)c1cnn2ccc(N3CC4(CCN4)C3)cc12` [Example 239], the EC50 in assay [1] is 100 to 1000 nM. The half-inhibitory concentration (IC50) in assay [2] is under 100 nM.

The molecule `CCC1(O)CC2(CN(c3ccn4ncc(C(=O)Nc5cc(-c6noc([C@H]7C[C@@H]7F)n6)ccc5C)c4c3)C2)C1` [Example 240] came in with a half-maximal effective concentration (EC50) in assay [1] of under 100 nM. In assay [2], the IC50 was under 100 nM.

The molecule `Cc1ccc(-c2noc([C@H]3C[C@@H]3F)n2)cc1NC(=O)c1cnn2ccc(N3CC4(C3)CN(S(C)(=O)=O)C4)cc12` [Example 241-1] gave an EC50 in assay [1] of under 100 nM. In addition, the half-inhibitory concentration (IC50) in assay [2] was under 100 nM.

In assay [1], `Cc1ccc(-c2noc([C@H]3C[C@@H]3F)n2)cc1NC(=O)c1cnn2ccc(N3CC4(COC(C)(C)OC4)C3)cc12` [Example 241-2] registered an EC50 of over 1000 nM. For the same molecule, the IC50 in assay [2] was under 100 nM.

As to `Cc1ccc(-c2noc([C@H]3C[C@@H]3F)n2)cc1NC(=O)c1cnn2ccc(N3CC(CO)(CO)C3)cc12` [Example 241-3], the EC50 in assay [1] is under 100 nM. Moreover, in assay [2], the half-inhibitory concentration (IC50) was under 100 nM.

As to `Cc1ccc(-c2noc([C@H]3C[C@@H]3F)n2)cc1NC(=O)c1cnn2ccc(N3CCN(C(=O)C(F)(F)F)[C@H](C)C3)cc12` [Example 241-4], the 50% effective concentration (EC50) in assay [1] is under 100 nM. The half-maximal inhibitory concentration (IC50) in assay [2] is under 100 nM.

Turning to `Cc1ccc(-c2noc([C@H]3C[C@@H]3F)n2)cc1NC(=O)c1cnn2ccc(N3CCN(C(=O)C4CC4)[C@H](C)C3)cc12` [Example 241-5], in assay [1], the half-maximal effective concentration (EC50) is under 100 nM. Also, the 50% inhibitory concentration (IC50) in assay [2] is under 100 nM.

Turning to `CC(=O)N1CCN(c2ccn3ncc(C(=O)Nc4cc(-c5noc([C@H]6C[C@@H]6F)n5)ccc4C)c3c2)CC1` [Example 241-6], in assay [1], the concentration giving a half-maximal response (EC50) is under 100 nM. The half-inhibitory concentration (IC50) in assay [2] was under 100 nM.

In the case of `Cc1ccc(-c2noc([C@H]3C[C@@H]3F)n2)cc1NC(=O)c1cnn2ccc(N3CCN(C(=O)OC(C)(C)C)[C@H](C)C3)cc12` [Example 241-7], the half-maximal effective concentration (EC50) in assay [1] was under 100 nM. Moreover, the half-maximal inhibitory concentration (IC50) in assay [2] lay in the range of 100 to 1000 nM.

Molecule `Cc1ccc(-c2noc([C@H]3C[C@@H]3F)n2)cc1NC(=O)c1cnn2ccc(NCC3(CO)COC3)cc12` [Example 241-8] gave an EC50 in assay [1] of under 100 nM. Also, the 50% inhibitory concentration (IC50) in assay [2] was under 100 nM.

In turn, `Cc1ccc(-c2noc([C@H]3C[C@@H]3F)n2)cc1NC(=O)c1cnn2ccc(NCC3(C(=O)OC(C)(C)C)COC3)cc12` [Example 241-9] had an EC50 in assay [1] of 100 to 1000 nM. Further, the half-maximal inhibitory concentration (IC50) in assay [2] lay in the range of 100 to 1000 nM.

The molecule `Cc1ccc(-c2noc([C@H]3C[C@@H]3F)n2)cc1NC(=O)c1cnn2ccc(N3CC(C(=O)NC4CC4)C3)cc12` [Example 241-10] showed an EC50 in assay [1] of under 100 nM. Further, the IC50 in assay [2] was under 100 nM.

(Values after patent US20250059174A1, “Pharmaceutical Compounds and Compositions as C-Kit Kinase Inhibitors” (Enanta Pharmaceuticals, Inc., priority 2023, published 2025).)
